Measurements reported in patent US5112846A, “N-hydroxyamide, N-hydroxythioamide, hydroxyurea, and N-hydroxythiourea derivatives of selected nsaids as antiinflammatory agents” (Warner-Lambert Company, priority 1990, dated 1992).
pIC50: −log10 of the molar value. Like-named read-outs stand apart in the source and are kept apart here. Blank lines part the entries; values can stand above or below the molecule they belong to.

Assays:
[1] = target: T1, 5-Lipoxygenase (Rattus norvegicus, UniProt P12527); test: ARBL whole cell 5-lipoxygenase assay (LTB4 formation in RBL-1 cells, A23187 stimulated); assay type: cell-based; details: for pIC50: read-out: ARBL IC50 (inhibition of LTB4 formation)
T1 construct: host or cells: RBL-1 rat basophilic leukemia cells
T1 sequence (P12527 1-673): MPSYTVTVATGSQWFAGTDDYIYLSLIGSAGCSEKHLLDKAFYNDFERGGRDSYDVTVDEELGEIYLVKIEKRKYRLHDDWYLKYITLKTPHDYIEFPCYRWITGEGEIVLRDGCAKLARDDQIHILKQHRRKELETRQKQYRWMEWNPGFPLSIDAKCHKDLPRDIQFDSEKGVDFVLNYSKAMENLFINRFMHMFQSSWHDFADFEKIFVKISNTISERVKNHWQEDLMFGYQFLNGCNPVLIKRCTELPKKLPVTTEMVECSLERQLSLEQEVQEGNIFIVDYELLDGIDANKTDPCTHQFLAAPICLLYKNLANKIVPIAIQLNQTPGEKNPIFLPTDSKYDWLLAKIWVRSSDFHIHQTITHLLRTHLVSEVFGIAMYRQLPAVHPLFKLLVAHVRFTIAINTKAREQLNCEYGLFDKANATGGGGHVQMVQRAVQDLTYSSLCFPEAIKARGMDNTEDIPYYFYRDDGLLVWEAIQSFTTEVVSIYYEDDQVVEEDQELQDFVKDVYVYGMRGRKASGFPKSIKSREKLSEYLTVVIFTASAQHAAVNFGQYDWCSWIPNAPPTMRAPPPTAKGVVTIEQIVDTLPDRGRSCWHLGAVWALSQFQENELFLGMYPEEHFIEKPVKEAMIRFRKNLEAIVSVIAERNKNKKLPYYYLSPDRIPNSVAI
Method: (§1) ARBL/ARBC Whole Cell 5-Lipoxygenase and Cyclooxygenase Assays
(§2) The rat basophilic leukemia cell line (RBL-1) was obtained from the American Type Culture Collection (Rockville, MD).
(§3) Radioimmunoassay (RIA) kits of LTB4 and PGF2α were obtained from Amersham (Arlington Heights, IL) and Seragen (Boston, MA), respectively.
(§4) RBL-1 cells are grown in suspension culture in Eagle's minimum essential medium supplemented with 12% fetal bovine serum at 37° C. in an incubator supplied with air-5% carbon dioxide. Cells are harvested by centrifugation. They are washed with cold phosphate buffered saline pH 7.4 (PBS; NaCl, 7.1 g; Na2 HPO4, 1.15 g; KH2 PO4, 0.2 g; and KCl, 0.2 g/l). Cells are finally suspended in PBS containing 1.0 mM calcium at a density of 2×10^6 cells/ml. Cells are incubated with and without test agent (in DMSO) (1% DMSO is without effect on arachidonic acid metabolism) for ten minutes at room temperature. Calcium ionophore A23187 (5 μM) is added and cells are incubated for seven minutes at 37° C. The reaction is stopped by chilling the tubes on ice for ten minutes. Cells are separated by centrifugation and the supernatant is stored at -20° C. Aliquots (100 μl) are analyzed for LTB4 and PGF2α using radioimmunoassay kits as provided by the supplier.
(§5) Tables 1-4 contain biochemical data obtained from this whole cell assay either as IC50 s which are calculated as the amount of test compound causing 50% inhibition of LTB4 or PGF2α formation or % inhibition of LTB4 or PGF2α at the indicated amount expressed as μM.

[2] = target: T2, Cyclooxygenase (Rattus norvegicus, UniProt Q63921); test: ARBC whole cell cyclooxygenase assay (PGF2α formation in RBL-1 cells, A23187 stimulated); assay type: cell-based; details: for pIC50: read-out: ARBC IC50 (inhibition of PGF2α formation); for inhibition at 32 µM: Table 3, read-out: ARBC % inhibition (N @ 32)
T2 construct: host or cells: RBL-1 rat basophilic leukemia cells
T2 sequence (Q63921 27-602): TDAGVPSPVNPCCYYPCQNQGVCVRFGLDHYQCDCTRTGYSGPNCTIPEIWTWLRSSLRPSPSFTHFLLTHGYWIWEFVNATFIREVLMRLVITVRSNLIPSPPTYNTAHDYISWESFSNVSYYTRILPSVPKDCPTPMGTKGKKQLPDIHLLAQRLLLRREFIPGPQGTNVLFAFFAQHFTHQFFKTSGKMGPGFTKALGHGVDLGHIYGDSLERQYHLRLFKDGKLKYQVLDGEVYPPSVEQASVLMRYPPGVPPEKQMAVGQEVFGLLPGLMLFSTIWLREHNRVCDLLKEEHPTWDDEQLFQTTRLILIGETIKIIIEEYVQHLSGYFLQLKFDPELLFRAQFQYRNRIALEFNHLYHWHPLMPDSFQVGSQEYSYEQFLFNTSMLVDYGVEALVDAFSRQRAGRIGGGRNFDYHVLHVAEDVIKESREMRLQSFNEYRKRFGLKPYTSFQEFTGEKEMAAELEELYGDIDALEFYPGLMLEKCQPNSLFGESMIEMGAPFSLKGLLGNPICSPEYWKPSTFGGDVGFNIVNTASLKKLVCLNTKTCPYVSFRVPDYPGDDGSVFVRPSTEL
Method: as §1, §2, §3, §4, §5

[3] = RBL-1 cells, read-out: ARBL % inhibition of LTB4
[4] = RBL-1 cells, read-out: ARBC % inhibition of PGF2α
[5] = RBL-1, Table 1, read-out: ARBC % inhibition (N)
[6] = RBL-1, Table 2, read-out: ARBC % inhibition (N)

inhibition at 16 µM [1, 3]: 97%
inhibition at 16 µM [2, 4]: 76%
Structure (SMILES): ONCc1ccc2c(c1)Cc1ccccc1-2 [Example 1, N-Hydroxy-9H-fluorene-2-methanamine]

inhibition at 16 µM [1, 3]: 96%
inhibition at 16 µM [2, 5]: < 40%
Structure (SMILES): CCOC(=O)C(=O)N(O)Cc1ccc2c(c1)Cc1ccccc1-2 [Example 2, (9H-Fluoren-2-ylmethyl)hydroxyamino-oxo-acetic acid, ethyl ester]

inhibition at 16 µM ([1]; RBL-1, Table 1, read-out: ARBL % inhibition (N)): < 40%
inhibition at 16 µM [2, 5]: < 40%
Structure (SMILES): O=C(O)C(=O)N(O)Cc1ccc2c(c1)Cc1ccccc1-2 [Example 3, (9H-Fluoren-2-ylmethyl)hydroxyamino-oxo-acetic acid]

inhibition at 16 µM [1, 3]: 100%
pIC50 ([2]; RBL-1 cells): 4.92
Structure (SMILES): CC(=O)N(O)Cc1ccc2c(c1)Cc1ccccc1-2 [Example 4, N-(9H-Fluoren-2-ylmethyl)-N-hydroxy-acetamide]

inhibition at 16 µM [1, 3]: 99%
inhibition at 16 µM [2, 5]: < 40%
Structure (SMILES): CC(C)C(=O)N(O)Cc1ccc2c(c1)Cc1ccccc1-2 [Example 5, N-(9H-Fluoren-2-ylmethyl)-N-hydroxy-2-methyl-propanamide]

inhibition at 16 µM [1, 3]: 100%
inhibition at 16 µM [2, 5]: < 40%
Structure (SMILES): CNC(=O)N(O)Cc1ccc2c(c1)Cc1ccccc1-2 [Example 6, N-(9H-Fluoren-2-ylmethyl)-N-hydroxy-N'-methylurea]

inhibition at 16 µM [1, 3]: 100%
inhibition at 16 µM [2, 4]: 89%
Structure (SMILES): CC(NO)c1ccc2c(c1)Cc1ccccc1-2 (stereo not drawn) [Example 7, N-Hydroxy-α-methyl-9H-fluorene-2-methanamine]

pIC50 ([1]; RBL-1 cells): 6.04
inhibition at 16 µM [2, 5]: < 40%
Structure (SMILES): CNC(=O)N(O)C(C)c1ccc2c(c1)Cc1ccccc1-2 (stereo not shown) [Example 8, N-(1-(9H-Fluoren-2-yl)ethyl)-N-hydroxy-N'-methylurea]

inhibition at 16 µM [1, 3]: 100%
inhibition at 16 µM [2, 4]: 49%
Structure (SMILES): CCNC(=O)N(O)C(C)c1ccc2c(c1)Cc1ccccc1-2 (stereo not shown) [Example 9, N'-Ethyl-N-(1-(9H-fluoren-2-yl)ethyl)-N-hydroxyurea]

inhibition at 16 µM [1, 3]: 100%
inhibition at 16 µM [2, 4]: 59%
Structure (SMILES): CNC(=S)N(O)C(C)c1ccc2c(c1)Cc1ccccc1-2 (stereo not shown) [Example 10, N-(1-(9H-Fluoren-2-yl)ethyl)-N-hydroxy-N'-methylthiourea]

pIC50 ([1]; RBL-1 cells): 6.12
inhibition at 16 µM [2, 5]: < 40%
Structure (SMILES): CC(=O)N(O)C(C)c1ccc2c(c1)Cc1ccccc1-2 (stereo not shown) [Example 11, N-(1-(9H-Fluoren-2-yl)ethyl)-N-hydroxy-acetamide]

inhibition at 16 µM [1, 3]: 95%
inhibition at 16 µM [2, 4]: 79%
Structure (SMILES): CCOC(=O)N(O)C(C)c1ccc2c(c1)Cc1ccccc1-2 (stereo not drawn) [Example 12, N-Hydroxy-alpha-methyl-9H-fluorene-2-methanamine carbamic acid, ethyl ester]

inhibition at 16 µM [1, 3]: 90%
inhibition at 16 µM [2, 5]: < 40%
Structure (SMILES): CC(C)C(=O)N(O)C(C)c1ccc2c(c1)Cc1ccccc1-2 (stereo not shown) [Example 13]

inhibition at 0.25 µM ([1]; at 0.25 μM, RBL-1 cells): 56%
inhibition at 16 µM [2, 5]: < 40%
Structure (SMILES): CCNC(=S)N(O)C(C)c1ccc2c(c1)Cc1ccccc1-2 (stereo not shown) [Example 14, N-(1-(9H-Fluoren-2-yl)ethyl)-N-hydroxy-N'-ethylthiourea]

inhibition at 16 µM [1, 3]: 100%
pIC50 ([2]; RBL-1 cells): 5.24
Structure (SMILES): CC(C)C(=O)N(O)Cc1ccc2c(c1)OCc1ccccc1C2=O [Example 17, N[(6,11-Dihydro-11-oxodibenz[b,el]oxepin-3-yl)methyl]N-hydroxy-2-methylpropanamide]

pIC50 ([1]; RBL-1 cells): 6.08
inhibition at 16 µM [2, 6]: < 40%
Structure (SMILES): CC(=O)N(O)Cc1ccc2c(c1)OCc1ccccc1C2=O [Example 18, N-[(6,11-Dihydro-11-oxodibenz[b,el]oxepin-3-yl)methyl]-N-hydroxyacetamide]

inhibition at 16 µM [1, 3]: 84%
inhibition at 16 µM [2, 6]: < 40%
Structure (SMILES): CCOC(=O)C(=O)N(O)Cc1ccc2c(c1)OCc1ccccc1C2=O [Example 19, Ethyl[[(6,11-Dihydro-11-oxodibenz[b,e]oxepin-3-yl)methyl]hydroxyamino]oxoacetate]

pIC50 ([1]; RBL-1 cells): 6.29
inhibition at 16 µM [2, 6]: < 40%
Structure (SMILES): CNC(=O)N(O)Cc1ccc2c(c1)OCc1ccccc1C2=O [Example 20, N-[(6,11-Dihydro-11-oxodibenz[b,e]oxepin-3-yl)methyl]-N-hydroxy-N'-methylurea]

pIC50 ([1]; RBL-1 cells): 6.29
pIC50 ([2]; RBL-1 cells): 4.82
Structure (SMILES): CC(=O)N(O)Cc1ccccc1Nc1cccc(C)c1C [Example 47]

pIC50 ([1]; RBL-1 cells): 5.89
inhibition at 32 µM ([2]; RBL-1): < 40%
Structure (SMILES): CC(=O)N(O)Cc1ccccc1Nc1c(Cl)cccc1Cl [Example 48, N-[[(2,6-Dichlorophenyl)amino]phenyl]methyl-N-hydroxyacetamide]

pIC50 ([1]; RBL-1 cells): 5.74
inhibition at 32 µM ([2]; RBL-1): < 40%
Structure (SMILES): CC(=O)N(O)C(C)c1ccccc1Nc1c(Cl)ccc(C)c1Cl (stereo not shown) [Example 53, N-[1-[2-[(2,6-dichloro-3-methylphenyl)amino]phenyl]ethyl]-N-hydroxyacetamide]

pIC50 ([2]; RBL-1 cells): 4.82
Structure (SMILES): COc1ccc2c(c1)c(CN(O)C(C)=O)c(C)n2C(=O)c1ccc(Cl)cc1 [Example 63, N-[[1-(4-Chlorobenzoyl)-5-methoxy-2-methyl-1H-indole-3-yl]methyl]-N-hydroxyacetamide]

inhibition at 16 µM ([1]; RBL-1, Table 4, read-out: ARBL % inhibition (N @ 16)): < 40%
Structure (SMILES): COc1ccc2c(c1)c(CN(O)C(=O)CCC(=O)O)c(C)n2C(=O)c1ccc(Cl)cc1 [Example 66, 4-[[[1-(4-Chlorobenzoyl)-5-methoxy-2-methyl-1H-indol-3-yl]methyl]hydroxyamino]-4-oxo-butanoic acid]

pIC50 ([2]; RBL-1 cells): 4.80
Structure (SMILES): COC(=O)N(O)Cc1c(C)n(C(=O)c2ccc(Cl)cc2)c2ccc(OC)cc12 [Example 67, [[1-(4-Chlorobenzoyl)-5-methoxy-2-methyl-1H-indol-3-yl]methyl]hydroxycarbamic acid, methyl ester]

inhibition at 16 µM [1, 3]: 98%
Structure (SMILES): COc1ccc2c(c1)c(CN(O)C(N)=O)c(C)n2C(=O)c1ccc(Cl)cc1 [Example 68, N-(Aminocarbonyl)-1-(4-chlorobenzoyl)-N-hydroxy-5-methoxy-2-methyl-1H-indole-3-methanamine]

pIC50 ([1]; RBL-1 cells): 5.60
Structure (SMILES): CNC(=O)N(O)Cc1c(C)n(C(=O)c2ccc(Cl)cc2)c2ccc(OC)cc12 [Example 69, 1-(4-Chlorobenzoyl)-N-hydroxy-5-methoxy-2-methyl-N-[(methylamino)carbonyl]-1H-indole-3-methanamine]

inhibition at 16 µM [1, 3]: 98%
Structure (SMILES): CCOC(=O)NC(=O)N(O)Cc1c(C)n(C(=O)c2ccc(Cl)cc2)c2ccc(OC)cc12 [Example 72, [[[[1-(4-Chlorobenzoyl)-5-methoxy-2-methyl-1H-indol-3-yl]methyl]hydroxyamino]carbonyl]carbamic acid, ethyl ester]

inhibition at 16 µM [1, 3]: 100%
Structure (SMILES): CCOC(=O)CNC(=O)N(O)Cc1c(C)n(C(=O)c2ccc(Cl)cc2)c2ccc(OC)cc12 [Example 73, N-[[[[1-(4-Chlorobenzoyl)-5-methoxy-2-methyl-1H-indol-3-yl]methyl]hydroxyamino]carbonyl]glycine, ethyl ester]
